Data: patent US20230114728A1 (Venatorx Pharmaceuticals, Inc., priority 2019, published 2023)
Converted amounts (≈) assume the structure as drawn.

Legend:
P. aeruginosa PBP3 = target: T1, P. aeruginosa PBP3 (Pseudomonas aeruginosa, UniProt G3XD46); test: Bocillin-FL fluorescence polarization competition binding assay, P. aeruginosa PBP3; details: fluorescence polarization competition binding assay using Bocillin-FL
T1 construct: made in house
In short: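 Inhibitor competition with Bocillin-FL for P. aeruginosa PBP3 was followed by fluorescence polarization on a Cytation3 (BioTek) reader, using g-factor 0.96, 490 nm excitation and 520 nm emission. The enzyme was at 0.75 μM and the probe at 0.1 μM in Hepes/NaCl/glycerol buffer, 80 μl per well. FP was recorded immediately after probe addition for up to 60 minutes. Potency was expressed as EC50, the concentration that reduces bound probe by 50%.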

E. coli AG100 = test: Broth microdilution MIC in CAMHB; assay type: cell-based; details: Escherichia coli; E. coli AG100 (wild-type parent); MHB; read-out: Minimum Inhibitory Concentration, E. coli AG100
In short: (§1)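 Lowest compound concentration with no visible growth after 16-20 h at 37 °C defines MIC. Plates of 2-fold serial dilutions in cation-adjusted Mueller Hinton broth received 2-8×10^5 CFU/mL of exponentially grown cells, per CLSI methods; panel spans reference, hyper-permeable and efflux-pump-deleted strains.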

[1] = tested on: K. pneumoniae UMM producing SHV-5 and KPC-2; test: Broth microdilution MIC in CAMHB; assay type: cell-based; details: Klebsiella pneumoniae, read-out: Minimum Inhibitory Concentration, K. pneumoniae UMM
In short: as §1

E. coli 901C = test: Broth microdilution MIC in CAMHB; assay type: cell-based; details: Escherichia coli; E. coli 901C (hyper-permeable); MHB; read-out: Minimum Inhibitory Concentration, E. coli 901C
In short: as §1

P. aeruginosa ATCC 27853 = test: Broth microdilution MIC in CAMHB; assay type: cell-based; details: Pseudomonas aeruginosa, ATCC27853; MHB; read-out: Minimum Inhibitory Concentration, P. aeruginosa ATCC 27853
In short: as §1

E. coli AG100A = test: Broth microdilution MIC in CAMHB; assay type: cell-based; details: Escherichia coli, read-out: Minimum Inhibitory Concentration, E. coli AG100A
In short: as §1

[2] = tested on: P. aeruginosa (ΔmexAB-oprM); test: Broth microdilution MIC in CAMHB; assay type: cell-based; details: Pseudomonas aeruginosa, read-out: Minimum Inhibitory Concentration, P. aeruginosa ΔmexAB-OprM
In short: as §1

[3] = tested on: K. pneumoniae 848844 producing SHV-11 and KPC-2; test: Broth microdilution MIC in CAMHB; assay type: cell-based; details: Klebsiella pneumoniae, read-out: Minimum Inhibitory Concentration, K. pneumoniae 848844
In short: as §1

A. baumannii ATCC 19606 = test: Broth microdilution MIC in CAMHB; assay type: cell-based; details: Acinetobacter baumannii, ATCC19606; MHB; read-out: Minimum Inhibitory Concentration, A. baumannii ATCC 19606
In short: as §1

T1 sequence (G3XD46 whole entry): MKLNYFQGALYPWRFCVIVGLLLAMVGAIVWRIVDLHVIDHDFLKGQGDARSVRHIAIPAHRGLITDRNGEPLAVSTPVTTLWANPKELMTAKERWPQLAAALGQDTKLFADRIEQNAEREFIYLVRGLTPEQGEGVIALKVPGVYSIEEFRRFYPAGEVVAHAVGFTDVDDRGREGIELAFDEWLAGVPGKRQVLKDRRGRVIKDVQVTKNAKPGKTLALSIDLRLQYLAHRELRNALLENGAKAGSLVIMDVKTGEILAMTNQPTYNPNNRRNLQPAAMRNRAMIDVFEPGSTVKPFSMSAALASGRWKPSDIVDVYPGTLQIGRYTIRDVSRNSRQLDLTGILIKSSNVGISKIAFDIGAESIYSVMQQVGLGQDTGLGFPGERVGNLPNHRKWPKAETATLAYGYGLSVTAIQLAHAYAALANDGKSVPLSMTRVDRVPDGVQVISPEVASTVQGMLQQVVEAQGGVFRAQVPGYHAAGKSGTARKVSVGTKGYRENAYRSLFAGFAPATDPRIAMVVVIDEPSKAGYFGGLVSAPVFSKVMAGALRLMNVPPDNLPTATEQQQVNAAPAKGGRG

## CCN1CCN(C(=O)NC(C(=O)N[C@H]2Cc3cccc(C(=O)O)c3OB2O)c2cc(O)cc(O)c2)C(=O)C1=O (mixture of isomers) [Example 79, (3R)-3-(2-(3,5-dihydroxyphenyl)-2-(4-ethyl-2,3-dioxopiperazine-1-carboxamido)acetamido)-2-hydroxy-3,4-dihydro-2H-benzo[e][1,2]oxaborinine-8-carboxylic acid]
P. aeruginosa PBP3
  P. aeruginosa PBP3 Potency: D (D represents a potency <10 μM)
E. coli AG100
  MIC: 8 to 16 µg/mL
[1]
  MIC: 8 to 16 µg/mL
E. coli 901C
  MIC: < 0.25 µg/mL
P. aeruginosa ATCC 27853
  MIC: > 128 µg/mL
E. coli AG100A
  MIC: 2 to 4 µg/mL
[2]
  MIC: 2 to 4 µg/mL
[3]
  MIC: 32 to 64 µg/mL
A. baumannii ATCC 19606
  MIC: > 128 µg/mL

## CCN1CCN(C(=O)N[C@H](C(=O)N[C@H]2Cc3cccc(C(=O)O)c3OB2O)c2cc(O)cc(O)c2)C(=O)C1=O (single isomer, unassigned) [Example 81]
P. aeruginosa PBP3
  P. aeruginosa PBP3 Potency: B (B represents a potency between 30 μM and 500 μM inclusive)
E. coli AG100
  MIC: 32 to 64 µg/mL (≈ 59.2 to 118 µM)
[1]
  MIC: > 128 µg/mL
E. coli 901C
  MIC: 0.5 to 1 µg/mL (≈ 0.925 to 1.85 µM)
P. aeruginosa ATCC 27853
  MIC: > 128 µg/mL
E. coli AG100A
  MIC: 8 to 16 µg/mL (≈ 14.8 to 29.6 µM)
[2]
  MIC: 32 to 64 µg/mL (≈ 59.2 to 118 µM)
[3]
  MIC: > 128 µg/mL
A. baumannii ATCC 19606
  MIC: > 128 µg/mL

## CCN1CCN(C(=O)N[C@@H](C(=O)N[C@H]2Cc3cccc(C(=O)O)c3OB2O)c2cc(O)cc(O)c2)C(=O)C1=O (single isomer, unassigned) [Example 82]
P. aeruginosa PBP3
  P. aeruginosa PBP3 Potency: D (D represents a potency <10 μM)
E. coli AG100
  MIC: 8 to 16 µg/mL (≈ 14.8 to 29.6 µM)
[1]
  MIC: 32 to 64 µg/mL (≈ 59.2 to 118 µM)
E. coli 901C
  MIC: < 0.25 µg/mL
P. aeruginosa ATCC 27853
  MIC: > 128 µg/mL
E. coli AG100A
  MIC: 2 to 4 µg/mL (≈ 3.7 to 7.4 µM)
[2]
  MIC: 32 to 64 µg/mL (≈ 59.2 to 118 µM)
[3]
  MIC: > 128 µg/mL
A. baumannii ATCC 19606
  MIC: 32 to 64 µg/mL (≈ 59.2 to 118 µM)

## NCCN1CCN(C(=O)N[C@H](C(=O)N[C@H]2Cc3cccc(C(=O)O)c3OB2O)c2ccc(C(=O)O)cc2)C(=O)C1=O (single isomer, unassigned) [Example 83]
P. aeruginosa PBP3
  P. aeruginosa PBP3 Potency: C (C represents a potency between 10 and 30 μM)
E. coli AG100
  MIC: 32 to 64 µg/mL (≈ 56.4 to 113 µM)
[1]
  MIC: 32 to 64 µg/mL (≈ 56.4 to 113 µM)
E. coli 901C
  MIC: < 0.25 µg/mL
P. aeruginosa ATCC 27853
  MIC: 32 to 64 µg/mL (≈ 56.4 to 113 µM)
E. coli AG100A
  MIC: 8 to 16 µg/mL (≈ 14.1 to 28.2 µM)
[2]
  MIC: 8 to 16 µg/mL (≈ 14.1 to 28.2 µM)
[3]
  MIC: > 128 µg/mL
A. baumannii ATCC 19606
  MIC: > 128 µg/mL

## NCCN1CCN(C(=O)N[C@@H](C(=O)N[C@H]2Cc3cccc(C(=O)O)c3OB2O)c2ccc(C(=O)O)cc2)C(=O)C1=O (single isomer, unassigned) [Example 84]
P. aeruginosa PBP3
  P. aeruginosa PBP3 Potency: D (D represents a potency <10 μM)
E. coli AG100
  MIC: 8 to 16 µg/mL (≈ 14.1 to 28.2 µM)
[1]
  MIC: 8 to 16 µg/mL (≈ 14.1 to 28.2 µM)
E. coli 901C
  MIC: 0.5 to 1 µg/mL (≈ 0.881 to 1.76 µM)
P. aeruginosa ATCC 27853
  MIC: 32 to 64 µg/mL (≈ 56.4 to 113 µM)
E. coli AG100A
  MIC: 2 to 4 µg/mL (≈ 3.53 to 7.05 µM)
[2]
  MIC: 8 to 16 µg/mL (≈ 14.1 to 28.2 µM)
[3]
  MIC: 32 to 64 µg/mL (≈ 56.4 to 113 µM)
A. baumannii ATCC 19606
  MIC: > 128 µg/mL

## CCN1CCN(C(=O)NC(C(=O)N[C@H]2Cc3ccc(S)c(C(=O)O)c3OB2O)c2csc(N)n2)C(=O)C1=O (stereo partly drawn) [Example 54, (3R)-3-(2-(2-aminothiazol-4-yl)-2-(4-ethyl-2,3-dioxopiperazine-1-carboxamido)acetamido)-2-hydroxy-7-mercapto-3,4-dihydro-2H-benzo[e][1,2]oxaborinine-8-carboxylic acid]
E. coli AG100
  MIC: > 128 µg/mL
[1]
  MIC: > 128 µg/mL
E. coli 901C
  MIC: 0.5 to 1 µg/mL (≈ 0.889 to 1.78 µM)
E. coli AG100A
  MIC: > 128 µg/mL
[2]
  MIC: 32 to 64 µg/mL (≈ 56.9 to 114 µM)
[3]
  MIC: > 128 µg/mL
A. baumannii ATCC 19606
  MIC: > 128 µg/mL

## CCN1CCN(C(=O)NC(C(=O)N[C@H]2Cc3ccc(SCc4ccc(O)cc4)c(C(=O)O)c3OB2O)c2csc(N)n2)C(=O)C1=O (stereo partly drawn) [Example 55, (3R)-3-(2-(2-aminothiazol-4-yl)-2-(4-ethyl-2,3-dioxopiperazine-1-carboxamido)acetamido)-2-hydroxy-7-((4-hydroxybenzyl)thio)-3,4-dihydro-2H-benzo[e][1,2]oxaborinine-8-carboxylic acid]
E. coli AG100
  MIC: > 128 µg/mL
[1]
  MIC: > 128 µg/mL
E. coli 901C
  MIC: 0.5 to 1 µg/mL (≈ 0.748 to 1.5 µM)
E. coli AG100A
  MIC: 32 to 64 µg/mL (≈ 47.9 to 95.7 µM)
[2]
  MIC: 32 to 64 µg/mL (≈ 47.9 to 95.7 µM)
[3]
  MIC: > 128 µg/mL
A. baumannii ATCC 19606
  MIC: > 128 µg/mL

## CCN1CCN(C(=O)NC(C(=O)N[C@H]2Cc3ccc(C=O)c(C(=O)O)c3OB2O)c2csc(N)n2)C(=O)C1=O (stereo partly drawn) [Example 57, (3R)-3-(2-(2-aminothiazol-4-yl)-2-(4-ethyl-2,3-dioxopiperazine-1-carboxamido)acetamido)-7-formyl-2-hydroxy-3,4-dihydro-2H-benzo[e][1,2]oxaborinine-8-carboxylic acid]
P. aeruginosa PBP3
  P. aeruginosa PBP3 Potency: C (C represents a potency between 10 and 30 μM)
E. coli AG100
  MIC: > 128 µg/mL
[1]
  MIC: 32 to 64 µg/mL (≈ 57.3 to 115 µM)
E. coli 901C
  MIC: 2 to 4 µg/mL (≈ 3.58 to 7.16 µM)
E. coli AG100A
  MIC: 32 to 64 µg/mL (≈ 57.3 to 115 µM)
[2]
  MIC: 32 to 64 µg/mL (≈ 57.3 to 115 µM)
[3]
  MIC: 32 to 64 µg/mL (≈ 57.3 to 115 µM)
A. baumannii ATCC 19606
  MIC: > 128 µg/mL

## CCN1CCN(C(=O)NC(C(=O)N[C@H]2Cc3ccc(CO)c(C(=O)O)c3OB2O)c2csc(N)n2)C(O)C1=O (stereo partly drawn) [Example 58, (3R)-3-(2-(2-aminothiazol-4-yl)-2-(4-ethyl-2-hydroxy-3-oxopiperazine-1-carboxamido)acetamido)-2-hydroxy-7-(hydroxymethyl)-3,4-dihydro-2H-benzo[el][1,2]oxaborinine-8-carboxylic acid]
P. aeruginosa PBP3
  P. aeruginosa PBP3 Potency: B (B represents a potency between 30 μM and 500 μM inclusive)
E. coli AG100
  MIC: > 128 µg/mL
[1]
  MIC: > 128 µg/mL
E. coli 901C
  MIC: 32 to 64 µg/mL (≈ 56.9 to 114 µM)
E. coli AG100A
  MIC: > 128 µg/mL
[2]
  MIC: > 128 µg/mL
[3]
  MIC: > 128 µg/mL
A. baumannii ATCC 19606
  MIC: > 128 µg/mL

## CCN1CCN(C(=O)NC(C(=O)N[C@H]2Cc3ccc(O[C@@H]4CN[C@H](C(=O)N(C)C)C4)c(C(=O)O)c3OB2O)c2ccccc2)C(=O)C1=O (stereo partly drawn) [Example 59, (3R)-7-(((3S,5S)-5-(dimethylcarbamoyl)pyrrolidin-3-yl)oxy)-3-(2-(4-ethyl-2,3-dioxopiperazine-1-carboxamido)-2-phenylacetamido)-2-hydroxy-3,4-dihydro-2H-benzo[e][1,2]oxaborinine-8-carboxylic acid]
E. coli AG100
  MIC: > 128 µg/mL
[1]
  MIC: > 128 µg/mL
E. coli 901C
  MIC: 2 to 4 µg/mL (≈ 3.01 to 6.02 µM)
E. coli AG100A
  MIC: 32 to 64 µg/mL (≈ 48.2 to 96.3 µM)
[2]
  MIC: 8 to 16 µg/mL (≈ 12 to 24.1 µM)
[3]
  MIC: > 128 µg/mL
A. baumannii ATCC 19606
  MIC: > 128 µg/mL

## CCN1CCN(C(=O)NC(C(=O)N[C@H]2Cc3ccc(OCCN)c(C(=O)O)c3OB2O)c2ccccc2)C(=O)C1=O (stereo partly drawn) [Example 60, (3R)-7-(2-aminoethoxy)-3-(2-(4-ethyl-2,3-dioxopiperazine-1-carboxamido)-2-phenylacetamido)-2-hydroxy-3,4-dihydro-2H-benzo[e][1,2]oxaborinine-8-carboxylic acid]
P. aeruginosa PBP3
  P. aeruginosa PBP3 Potency: C (C represents a potency between 10 and 30 μM)
E. coli AG100
  MIC: > 128 µg/mL
[1]
  MIC: > 128 µg/mL
E. coli 901C
  MIC: 8 to 16 µg/mL (≈ 14.1 to 28.2 µM)
E. coli AG100A
  MIC: 32 to 64 µg/mL (≈ 56.4 to 113 µM)
[2]
  MIC: 32 to 64 µg/mL (≈ 56.4 to 113 µM)
[3]
  MIC: > 128 µg/mL
A. baumannii ATCC 19606
  MIC: > 128 µg/mL

## NCCN1CCN(C(=O)NC(C(=O)N[C@H]2Cc3cccc(C(=O)O)c3OB2O)c2c(F)cc(O)cc2Cl)C(=O)C1=O (stereo partly drawn) [Example 94, (3R)-3-(2-(4-(2-aminoethyl)-2,3-dioxopiperazine-1-carboxamido)-2-(2-chloro-6-fluoro-4-hydroxyphenyl)acetamido)-2-hydroxy-3,4-dihydro-2H-benzo[e][1,2]oxaborinine-8-carboxylic acid]
E. coli AG100
  MIC: 32 to 64 µg/mL (≈ 54.1 to 108 µM)
[1]
  MIC: 32 to 64 µg/mL (≈ 54.1 to 108 µM)
E. coli 901C
  MIC: 0.5 to 1 µg/mL (≈ 0.845 to 1.69 µM)
P. aeruginosa ATCC 27853
  MIC: > 128 µg/mL
E. coli AG100A
  MIC: 2 to 4 µg/mL (≈ 3.38 to 6.76 µM)
[2]
  MIC: 32 to 64 µg/mL (≈ 54.1 to 108 µM)
[3]
  MIC: 32 to 64 µg/mL (≈ 54.1 to 108 µM)
A. baumannii ATCC 19606
  MIC: > 128 µg/mL
